Data reported in patent publication US20150141381A1, “TETRACYCLINE COMPOUNDS HAVING TARGET THERAPEUTIC ACTIVITIES” (Paratek Pharmaceuticals, Inc., priority 2001, published 2015).
Read-outs that look alike come from different tables or passages of the source.

Assays:
S. aureus RN450 = test: In Vitro Anti-Bacterial Activity Assay (MIC), gram positive; format: cell-based; details: for MIC: Staphylococcus aureus, RN450, 18 h
[1] = tested on: cultured murine cortical neurons; test: Protection of Cultured Cortical Neurons from Excitotoxic Injury Induced by NMDA (NE Assay); format: cell-based, mice; details: NMDA 62.5 μM, LDH release 24 hours after starting the exposure
Method: Primary cortical astrocyte cultures were prepared from one-day old mice, as described in the literature procedure (Tikka, T M et al. J Immunol. 2001 Jun. 15; 166(12):7527-33). After decapitation, the forebrain cortices were collected, cleaned from meninges and, after mincing, dissociated by incubation in papain/Dnase solution followed by trituration. The dissociated cells were suspended in a culture medium consisting of Eagle's minimal essential medium (MEM) with 10% heat-inactivated fetal bovine serum and glutamine (2 mM) and plated in 75 cm^2 cell culture flasks. The medium was replaced with fresh culture medium at day 7. At confluence (day 12-15), the astrocytes were trypsinized and re-plated into 24-well culture vessels. On day 7-8, the neurons were cultured on top of these confluent astrocyte monolayers.
Cortical neuron suspensions were prepared from embryonic day 17 mice. The cortices were collected and meninges removed. The tissue was minced into small pieces and incubated in trypsin solution. The tissue was suspended using a pipette and after centrifugation resuspended and plated on top of astrocyte cultures at a density of 250,000 cells/well to 24-well culture vessel in Eagle's minimal essential medium (MEM, Earle's salts) supplemented with 20 mM glucose, 2 mM glutamine, 10% fetal bovine serum, and 10% heat-inactivated horse serum (HS). Medium was changed after 5 days to MEM containing 20 mM glucose, 2 mM glutamine, and 10% HS, as well as cytosine arabinoside (final concentration 10 μM) to inhibit cell division, and incubated for 2 days. Subsequently, cultures were fed twice weekly with MEM supplemented with 20 mM glucose, 2 mM glutamine and 10% HS, and used at day 12-15.
On the day of experiment, the culture medium was replaced with 1) MEM, 2) MEM containing the test tetracycline compounds. Positive control drug included 10 μM MK-801 (Sigma). […] As a control for total neuronal death, a 24 hour incubation with 500 μM NMDA was used (100% cell death control).
The cell viability was assessed by measuring lactate dehydrogenase (LDH) release 24 hours after starting the exposure. The LDH release to the culture medium was measured from cell-free medium using Sigma LDH reagent employing kinetic measurement of conversion of lactate to pyruvate using NADH as a cofactor. The rate of increase in absorbance at 340 nm was directly proportional to the activity of LDH in the sample, and was measured with a Labsystems Multiskan ELISA reader.

E. coli mL308 225 = test: In Vitro Anti-Bacterial Activity Assay (MIC), gram negative; format: cell-based; details: for MIC: Escherichia coli, ML308225, 18 h
[2] = MIC class, Table 3, read-out: Antibiotic Activity Gram +
[3] = MIC class, Table 3, read-out: Antibiotic Activity Gram −
[4] = gram positive bacteria, read-out: Antibiotic Activity Gram + (MIC)
[5] = gram negative bacteria, read-out: Antibiotic Activity Gram − (MIC)

SMILES	MIC (S. aureus RN450; [2]) [mg/L]	neuroprotection (cell viability by LDH release) [1]	MIC (E. coli mL308 225; [3]) [mg/L]	MIC (S. aureus RN450; [4]) [mg/L]	MIC (E. coli mL308 225; [5]) [mg/L]	further results
CN(C)CCCOC(=O)/C=C/c1ccc(O)c2c1C[C@H]1C[C@H]3[C@H](N(C)C)C(O)=C(C(N)=O)C(=O)[C@@]3(O)C(O)=C1C2=O [BP]	< 4	good neuroprotection	< 4			
CN(C)c1cc(NC(=O)Nc2ccc([N+](=O)[O-])cc2)c(O)c2c1C[C@H]1C[C@H]3[C@@H](N(C)C)C(O)=C(C(N)=O)C(=O)[C@@]3(O)C(O)=C1C2=O [CD]	< 4	good neuroprotection	> 4			
CN(C)[C@@H]1C(O)=C(C(N)=O)C(=O)[C@@]2(O)C(O)=C3C(=O)c4c(O)ccc(/C=C/C(=O)NC(C)(C)C)c4C[C@H]3C[C@@H]12 [CW]	< 4	good neuroprotection	> 4			
C=C1c2cccc(O)c2C(=O)C2=C(O)[C@]3(O)C(=O)C(C(N)=O)=C(O)[C@@H](N(C)C)[C@@H]3[C@@H](O)[C@H]12 [C]	> 4	good neuroprotection	> 4			
CN(C)c1cc(NCc2ccc3c(c2)OCO3)c(O)c2c1C[C@H]1C[C@H]3[C@H](N(C)C)C(O)=C(C(N)=O)C(=O)[C@@]3(O)C(O)=C1C2=O [EV]	> 4	good neuroprotection	> 4			
CN(C)c1cc(NC(=O)Nc2cccc(F)c2)c(O)c2c1C[C@H]1C[C@H]3[C@@H](N(C)C)C(O)=C(C(N)=O)C(=O)[C@@]3(O)C(O)=C1C2=O [H]	< 4	good neuroprotection	> 4			
CN(C)[C@@H]1C(O)=C(C(N)=O)C(=O)[C@@]2(O)C(O)=C3C(=O)c4c(O)c(C(C)(C)C)cc(CN)c4C[C@H]3C[C@@H]12 [IE]	> 4	good neuroprotection	> 4			
CN(C)[C@H]1C(O)=C(C(N)=O)C(=O)[C@@]2(O)C(O)=C3C(=O)c4c(O)c(CN)cc(-c5ccccc5)c4C[C@H]3C[C@@H]12 [JC]	> 4	good neuroprotection	> 4			
CN(C)C1C(O)=C(C(N)=O)C(=O)[C@@]2(O)C(O)=C3C(=O)c4c(O)ccc(CNCC(C)(C)C)c4C[C@H]3C[C@@H]12 (some centres unmarked) [JD]	< 4	good neuroprotection	< 4			
CN(C)Cc1ccc(O)c2c1C[C@H]1C[C@H]3[C@@H](N(C)C)C(O)=C(C(N)=O)C(=O)[C@@]3(O)C(O)=C1C2=O [KF]	< 4	good neuroprotection	< 4			
CCC(=O)O[C@H]1[C@H]2C(=C(O)[C@]3(O)C(=O)C(C(N)=O)=C(O)[C@@H](N(C)C)[C@H]13)C(=O)c1c(O)cccc1[C@@H]2C [M]	< 4	good neuroprotection	> 4			
CC(C)CNCc1cc(N(C)C)c2c(c1O)C(=O)C1=C(O)[C@]3(O)C(=O)C(C(N)=O)=C(O)[C@@H](N(C)C)[C@@H]3C[C@@H]1C2 [drawing 3497]						Antibiotic Activity Gram + (MIC) (S. aureus RN450; gram positive bacteria): ** (compounds with MIC less than or equal to 4 μg/ml are indicated with **); Antibiotic Activity Gram − (MIC) (E. coli mL308 225; gram negative bacteria): * (compounds with an MIC of greater than 4 μg/ml are indicated with *)
CN(C)[C@@H]1C(O)=C(C(N)=O)C(=O)[C@@]2(O)C(O)=C3C(=O)c4c(O)ccc(-c5ccc(CNCC(F)(F)F)cc5)c4C[C@H]3C[C@@H]12 [drawing 3505]				< 4	< 4	
CN(C)[C@@H]1C(O)=C(C(N)=O)C(=O)[C@@]2(O)C(O)=C3C(=O)c4c(O)ccc(-c5ccc(CNCC(F)(F)F)cc5)c4C[C@H]3C[C@@H]12 [drawing 3506]						Antibiotic Activity Gram + (MIC) (S. aureus RN450; gram positive bacteria): ** (compounds with MIC less than or equal to 4 μg/ml are indicated with **); Antibiotic Activity Gram − (MIC) (E. coli mL308 225; gram negative bacteria): ** (compounds with MIC less than or equal to 4 μg/ml are indicated with **)
CN(C)[C@@H]1C(O)=C(C(N)=O)C(=O)[C@@]2(O)C(O)=C3C(=O)c4c(O)ccc(N5CCOCC5)c4C[C@H]3C[C@@H]12 [drawing 3548]				< 4	< 4	
CCCOc1cccc2c1C(=O)C1=C(O)[C@]3(O)C(=O)C(C(N)=O)=C(O)[C@@H](N(C)C)[C@@H]3C[C@@H]1C2 [drawing 3578]				> 4	> 4	
CCCOc1cccc2c1C(=O)C1=C(O)[C@]3(O)C(=O)C(C(N)=O)=C(O)[C@@H](N(C)C)[C@@H]3C[C@@H]1C2 [drawing 3586]						Antibiotic Activity Gram + (MIC) (S. aureus RN450; gram positive bacteria): * (compounds with an MIC of greater than 4 μg/ml are indicated with *); Antibiotic Activity Gram − (MIC) (E. coli mL308 225; gram negative bacteria): * (compounds with an MIC of greater than 4 μg/ml are indicated with *)
CN(C)[C@@H]1C(O)=C(C(N)=O)C(=O)[C@@]2(O)C(O)=C3C(=O)c4c(O)c(CN5CCCCC5)cc(-c5ccoc5)c4C[C@H]3C[C@@H]12 [drawing 3602]				< 4	> 4	
C[C@H]1c2cccc(O)c2C(=O)C2=C(O)[C@]3(O)C(=O)C(C(N)=O)=C(O)[C@@H](N(C)C)[C@@H]3[C@@H](O)[C@@H]21 [drawing 3660]				< 4	> 4	
C[C@H]1c2ccc(CNCC(C)(C)C)c(O)c2C(=O)C2=C(O)[C@]3(O)C(=O)C(C(N)=O)=C(O)[C@@H](N(C)C)[C@@H]3[C@@H](O)[C@@H]21 [drawing 3661]				> 4	> 4	
C[C@H]1c2cccc(O)c2C(=O)C2=C(O)[C@]3(O)C(=O)C(C(N)=O)=C(O)[C@@H](N(C)C)[C@@H]3[C@@H](O)[C@@H]21 [drawing 3668]						Antibiotic Activity Gram + (MIC) (S. aureus RN450; gram positive bacteria): ** (compounds with MIC less than or equal to 4 μg/ml are indicated with **); Antibiotic Activity Gram − (MIC) (E. coli mL308 225; gram negative bacteria): * (compounds with an MIC of greater than 4 μg/ml are indicated with *)
CN(C)c1cc(CNCCC(F)(F)F)c(O)c2c1C[C@H]1C[C@H]3[C@H](N(C)C)C(O)=C(C(N)=O)C(=O)[C@@]3(O)C(O)=C1C2=O [drawing 3671]				< 4	< 4	
CN(C)c1cc(CNCCC(F)(F)F)c(O)c2c1C[C@H]1C[C@H]3[C@H](N(C)C)C(O)=C(C(N)=O)C(=O)[C@@]3(O)C(O)=C1C2=O [drawing 3690]						Antibiotic Activity Gram + (MIC) (S. aureus RN450; gram positive bacteria): ** (compounds with MIC less than or equal to 4 μg/ml are indicated with **); Antibiotic Activity Gram − (MIC) (E. coli mL308 225; gram negative bacteria): ** (compounds with MIC less than or equal to 4 μg/ml are indicated with **)
CCc1cc(CN2CCC(F)(F)CC2)c(O)c2c1C[C@H]1C[C@H]3[C@H](N(C)C)C(O)=C(C(N)=O)C(=O)[C@@]3(O)C(O)=C1C2=O [drawing 3695]				< 4	< 4	
CCc1cc(CN2CCC(F)(F)CC2)c(O)c2c1C[C@H]1C[C@H]3[C@H](N(C)C)C(O)=C(C(N)=O)C(=O)[C@@]3(O)C(O)=C1C2=O [drawing 3696]						Antibiotic Activity Gram + (MIC) (S. aureus RN450; gram positive bacteria): ** (compounds with MIC less than or equal to 4 μg/ml are indicated with **); Antibiotic Activity Gram − (MIC) (E. coli mL308 225; gram negative bacteria): ** (compounds with MIC less than or equal to 4 μg/ml are indicated with **)
Cc1cnc(N)n1Cc1cc(N(C)C)c2c(c1O)C(=O)C1=C(O)[C@]3(O)C(=O)C(C(N)=O)=C(O)[C@@H](N(C)C)[C@@H]3C[C@@H]1C2 [drawing 3711]				< 4	> 4	
Cc1cnc(N)n1Cc1cc(N(C)C)c2c(c1O)C(=O)C1=C(O)[C@]3(O)C(=O)C(C(N)=O)=C(O)[C@@H](N(C)C)[C@@H]3C[C@@H]1C2 [drawing 3712]						Antibiotic Activity Gram + (MIC) (S. aureus RN450; gram positive bacteria): * (compounds with an MIC of greater than 4 μg/ml are indicated with *); Antibiotic Activity Gram − (MIC) (E. coli mL308 225; gram negative bacteria): * (compounds with an MIC of greater than 4 μg/ml are indicated with *)
